# Tests used:
# [1] = cited from earlier work
# [2] = system: insulin levels; assay: Clinical trial: insulin levels, week 15 versus week 2; type: in vivo, human; details: for number of individuals with higher insulin levels at week 15 than at week 2 / number of individuals with lower insulin level at week 15 than at week 2: only individuals without a "0.0" insulin result: four for Vitamin D3, five for 25-OH D3, daily or weekly dosing
# From the text: (§1) Each group included five subjects.
# (§2) Equimolar quantities of both substances were investigated.
# (§3) Each dosage was consumed orally at breakfast.
# (§4) Rigorous statistical analysis of the results obtained could not be performed for two reasons. First, upon unblinding the data, it was discovered that there was a difference between the groups' baseline glucose levels, and that this difference continued throughout the study. Secondly, upon examining individual's insulin levels, it was noted that a number of them were recorded as “0.0” in at least one visit.
# [3] = system: blood glucose; assay: Clinical trial: fasting glucose levels, week 15 versus week 2; type: in vivo, human; details: for effect on glucose levels (conclusion in words): daily or weekly oral dosing, week 15 vs week 2; for number of individuals with lower glucose levels at week 15 as compared to week 2: of ten individuals receiving daily (20 μg) or weekly (140 μg) oral dosing, postmenopausal women, no rigorous statistics
# From the text: as §1, §2, §3, §4
# [4] = system: plasma glucose; assay: Mouse study 1: plasma glucose in a model of muscle hypertrophy; type: in vivo, mice
# Protocol: In the first study, the effects of 25-OH D3 on blood glucose were determined in a model of muscle hypertrophy. Briefly, two groups of 10 animals were anesthetized and the left hindlimb of the animals was fixed. All animals received an analgesic. A small incision was made through the skin over the gastrocnemius muscle. The complete gastrocnemius muscle and his tendons were exposed. Both heads of the gastrocnemius muscle were carefully dissected from the underlying intact muscles and care was taken not to rupture nerves and vessels. The skin was closed with a silk suture and the animals were returned into the cages. After recovering from anesthesia the animals could move directly without problems in their cages. Animals were treated for three weeks by gavage with 25-OH D3 at a daily dosage of 50 μg/kg and the control group received vehicle. At the end of the study, blood was taken and plasma glucose concentration was analyzed by a Hitachi 912 Automatic Analyser.
# [5] = system: plasma glucose; assay: Mouse study 2: plasma glucose in a model of muscle atrophy (hindlimb unloading); type: in vivo, mice; details: for change in blood glucose levels versus control with unloading (in words): study 2, Table 2; for Plasma glucose: study 2, hindlimb unloading, 50 μg/kg/bw (combination 50+50) daily by gavage for 3 weeks, control with unloading 12.89, without unloading 12.02
# From the text: Briefly, nine month old animals were randomized at the beginning of the study into five groups with 10 animals per group. The animals were placed in special cages for duration of three weeks and their tails were suspended, which leads to skeletal muscle atrophy of the unloaded hindlimbs. An additional group without hindlimb unloading was placed in identical cages in order to detect the effects of unloading. All mice were housed separately and had free access to feed and water ad libidum. All animals were treated daily by gavage throughout the 3 weeks of the experiment: • 1. Control group without unloading received vehicle (gelatine) • 2. Control group with unloading received vehicle (gelatine) • 3. […] The 25-OH D3 group with unloading received 25-OH D3 (50 μg/kg/bw) • 5.
Molecule,blood concentration at which hypercalcemia may occur ([1]; in vivo),ability to improve insulin sensitivity (conclusion in words) ([2]; compared with Vitamin D3),number of individuals with higher insulin levels at week 15 than at week 2 [2],number of individuals with lower insulin level at week 15 than at week 2 [2],effect on glucose levels (conclusion in words) [3],number of individuals with lower glucose levels at week 15 as compared to week 2 [3],"change in plasma glucose compared to control group (in words) ([4]; study 1, Table 1)","Plasma glucose ([4]; study 1, muscle hypertrophy model, 50 μg/kg daily by gavage for three weeks, vehicle control 15.53) [mmol/L]",change in blood glucose levels versus control with unloading (in words) [5],Plasma glucose [5] [mmol/L],blood concentration of 25-hydroxyvitamin D after ingestion as a dietary supplement ([1]; ingestion of 250 μg/day Vitamin D)
25-hydroxyvitamin D,greater than 375 nmol/L,,,,,,,,,,
"C=C1CC[C@H](O)C/C1=C/C=C1\CCC[C@]2(C)[C@@H]([C@H](C)CCCC(C)(C)O)CC[C@@H]12 [25-OH D3, 25-hydroxyvitamin D3]",,better ability to improve insulin sensitivy than does Vitamin D3,one,four,can lower glucose levels,6 of 10,decrease in plasma glucose,14.65,moderate decrease in blood glucose levels,12.75,
"C=C1CC[C@H](O)C/C1=C/C=C1\CCC[C@]2(C)[C@@H]([C@H](C)CCCC(C)C)CC[C@@H]12 [Vitamin D3, cholecalciferol]",,,three,one,can lower glucose levels,7,,,moderate decrease in blood glucose levels,12.69,
Vitamin D,,,,,,,,,,,about 200 nmol/L
